Measurements published in PubChem BioAssay (NCI).
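Cells were grown in 96-well plates and exposed to each compound for 48 hours at five concentrations; endpoints were interpolated linearly between bracketing concentrations, or set to the highest concentration if not reached. At the TGI there is no net growth.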

What was measured:
Assay in all cases: NCI tumour cell line growth inhibition, 48 h
SF-295 CNS = system: SF-295 CNS
TK-10 renal = system: TK-10 renal
786-0 renal = system: 786-0 renal
K-562 leukemia = system: K-562 leukemia
DLD-1 colon = system: DLD-1 colon
SNB-19 CNS = system: SNB-19 CNS
SK-MEL-2 melanoma = system: SK-MEL-2 melanoma
UO-31 renal = system: UO-31 renal
MOLT-4 leukemia = system: MOLT-4 leukemia
OVCAR-4 ovarian = system: OVCAR-4 ovarian
UACC-257 melanoma = system: UACC-257 melanoma
KM20L2 colon = system: KM20L2 colon
RPMI-8226 leukemia = system: RPMI-8226 leukemia
SNB-78 CNS = system: SNB-78 CNS
SNB-75 CNS = system: SNB-75 CNS
CAKI-1 renal = system: CAKI-1 renal
A549 NSCLC = system: A549 NSCLC
NCI-H23 lung = system: NCI-H23 lung
HT29 colon = system: HT29 colon
U251 CNS = system: U251 CNS
MALME-3M melanoma = system: MALME-3M melanoma
NCI-H522 lung = system: NCI-H522 lung
LXFL 529 NSCLC = system: LXFL 529 NSCLC
XF 498 CNS = system: XF 498 CNS
KM12 colon = system: KM12 colon
SK-MEL-28 melanoma = system: SK-MEL-28 melanoma
EKVX NSCLC = system: EKVX NSCLC
NCI-H460 lung = system: NCI-H460 lung
CCRF-CEM leukemia = system: CCRF-CEM leukemia
SN12C renal = system: SN12C renal
M14 melanoma = system: M14 melanoma
SF-268 CNS = system: SF-268 CNS
OVCAR-3 ovarian = system: OVCAR-3 ovarian
SW-620 colon = system: SW-620 colon
A498 renal = system: A498 renal
SK-MEL-5 melanoma = system: SK-MEL-5 melanoma
ACHN renal = system: ACHN renal
OVCAR-5 ovarian = system: OVCAR-5 ovarian
HCT-15 colon = system: HCT-15 colon
OVCAR-8 ovarian = system: OVCAR-8 ovarian
HOP-62 NSCLC = system: HOP-62 NSCLC
HCC-2998 colon = system: HCC-2998 colon
SF-539 CNS = system: SF-539 CNS
COLO 205 colon = system: COLO 205 colon
LOX IMVI melanoma = system: LOX IMVI melanoma
SK-OV-3 ovarian = system: SK-OV-3 ovarian
IGROV1 ovarian = system: IGROV1 ovarian
M19-MEL melanoma = system: M19-MEL melanoma
SR leukemia = system: SR leukemia
RXF 393 renal = system: RXF 393 renal
UACC-62 melanoma = system: UACC-62 melanoma
HOP-92 NSCLC = system: HOP-92 NSCLC
DMS 273 small cell lung = system: DMS 273 small cell lung
DMS 114 small cell lung = system: DMS 114 small cell lung
HCT-116 colon = system: HCT-116 colon
HL-60(TB) leukemia = system: HL-60(TB) leukemia
NCI-H226 lung = system: NCI-H226 lung

Measured: TGI

C=CCN1C2Cc3cc(OC)c(OC)cc3C1Cc1cc(OC)c(OC)cc12
not listed: SF-539 CNS | COLO 205 colon | LOX IMVI melanoma | SK-OV-3 ovarian | IGROV1 ovarian | M19-MEL melanoma | SR leukemia | RXF 393 renal | UACC-62 melanoma | HOP-92 NSCLC | DMS 273 small cell lung | DMS 114 small cell lung | HCT-116 colon | HL-60(TB) leukemia | NCI-H226 lung
> 100 µM: all other assays above

CC1=C(O)C(=O)C2C(=O)C1C(C)C2c1ccc(C)cc1 (stereo not drawn)
not listed: SN12C renal | DMS 114 small cell lung | HCT-116 colon | HL-60(TB) leukemia | NCI-H226 lung
> 100 µM: all other assays above

O=[N+]([O-])c1nccn1COCCI
not listed: A498 renal | HCC-2998 colon | RXF 393 renal
> 100 µM: all other assays above
